One experiment deals with T1, hDAT (Homo sapiens, UniProt Q01959).
T1 construct: expressed in transfected cells
The experiment is classed as cell-based. Particulars: HEK293 cell line, read-out: IC50 values, uptake of [3H]-DA (DAT). On the procedure: (§1) The uptake of 5-HT, NE and DA into HEK293 cells stably expressing human transporters was determined using methods previously described with slight modifications. Briefly, the culture medium was removed from cells, and the cells were washed once with phosphate-buffered saline. Krebs-Ringers-HEPES (KRH) assay buffer (100 μL/well, containing 120 mM NaCl, 4.7 mM KCl, 2.2 mM CaCl2, 1.2 mM MgSO4, 1.2 mM […], 10 mM HEPES, pH 7.4) was then added. Various concentrations of drugs were administered to cells in a 24-well plate. The uptake was initiated by the addition of [^3H]-5-HT (50 nM), [^3H]-NE (80 nM), or [^3H]-DA (50 nM). Uptake was terminated by five washes using cold KRH assay buffer after 10-min incubation at 37 °C. The cells were solubilised using 400 μL of scintillation fluid and counted using a Packard Top Count scintillation counter.
(§2) All data for inhibition curves were analysed by nonlinear regression using Prism software (GraphPad Software Inc., San Diego, CA) to determine IC50 values. For the microdialysis experiments, two-way repeated-measures ANOVA followed by Tukey’s test was used to compare the percentage increase over baseline between groups, time and treatment as independent factors, and time as the repeated factor.

The target in the next experiment is T2, hSERT (Homo sapiens, UniProt P31645).
T2 construct: expressed in transfected cells
The experiment is classed as cell-based. As to conditions: HEK293 cell line, read-out: IC50 values, uptake of [3H]-5-HT (SERT). On the procedure: as §1, §2

A further experiment deals with T3, hNET (Homo sapiens, UniProt P23975).
T3 construct: expressed in transfected cells
T3 sequence (P23975 whole entry): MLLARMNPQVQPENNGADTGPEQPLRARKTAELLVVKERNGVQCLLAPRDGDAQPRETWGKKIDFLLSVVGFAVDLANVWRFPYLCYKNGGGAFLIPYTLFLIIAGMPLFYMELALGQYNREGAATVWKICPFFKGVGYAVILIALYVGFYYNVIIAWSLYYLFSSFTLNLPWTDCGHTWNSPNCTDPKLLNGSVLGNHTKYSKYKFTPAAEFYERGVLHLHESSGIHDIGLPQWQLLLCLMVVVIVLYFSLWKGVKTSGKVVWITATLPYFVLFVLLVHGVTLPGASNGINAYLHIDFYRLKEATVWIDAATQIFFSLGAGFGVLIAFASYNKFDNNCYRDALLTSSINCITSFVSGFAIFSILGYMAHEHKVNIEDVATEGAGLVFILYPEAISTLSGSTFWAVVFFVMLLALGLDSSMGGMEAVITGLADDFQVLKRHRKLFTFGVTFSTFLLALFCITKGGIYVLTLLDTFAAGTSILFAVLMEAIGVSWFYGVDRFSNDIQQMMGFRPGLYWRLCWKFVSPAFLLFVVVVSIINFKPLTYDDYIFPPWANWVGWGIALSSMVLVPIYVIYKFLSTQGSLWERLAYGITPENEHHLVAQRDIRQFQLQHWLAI
Briefly: [3H]-NE uptake in transporter-transfected HEK293 cells. The experiment is classed as cell-based. Particulars: HEK293 cell line, read-out: IC50 values, uptake of [3H]-NE (NET). On the procedure: as §1, §2

The next experiment deals with T4, D1 (Homo sapiens, UniProt P21728).
T4 construct: expressed in transfected cells; host or cells: HEK293 cell line
T4 sequence (P21728 whole entry): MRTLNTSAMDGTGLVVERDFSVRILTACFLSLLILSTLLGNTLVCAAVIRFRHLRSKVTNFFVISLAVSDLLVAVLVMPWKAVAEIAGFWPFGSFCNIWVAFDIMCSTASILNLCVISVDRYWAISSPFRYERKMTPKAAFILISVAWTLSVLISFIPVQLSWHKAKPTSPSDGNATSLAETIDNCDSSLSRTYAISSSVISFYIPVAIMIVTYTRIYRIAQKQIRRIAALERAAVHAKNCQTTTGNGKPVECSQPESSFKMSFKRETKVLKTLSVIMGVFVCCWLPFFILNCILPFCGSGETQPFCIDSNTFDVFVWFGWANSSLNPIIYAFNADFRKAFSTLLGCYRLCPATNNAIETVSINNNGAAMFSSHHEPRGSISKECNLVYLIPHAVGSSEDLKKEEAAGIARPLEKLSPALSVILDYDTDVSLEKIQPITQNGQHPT
Briefly: CNS receptor binding, dopamine D1. As to conditions: HEK293 cell line, [3H]-SCH23390(1). On the procedure:
(§3) Albiflorin (10 μM) was tested for numerous other potential binding targets by using standard receptor binding procedures. The tested targets included the following receptors: D1, D2, D3, D4, D5, 5-HT1A, 5-HT1B, 5-HT1D, 5-HT2a, 5-HT2C, 5-HT3, 5-HT5A, 5-HT6, 5-HT7, α1A, α1B, α2A, β1, M1, M2, M3, M4, M5, μ, κ, δ, A1, A2A, H1, H2, H3, H4.

The target in the next experiment is T5, D3 (Homo sapiens, UniProt P35462).
T5 construct: expressed in transfected cells; host or cells: CHO cell lines
T5 sequence (P35462 whole entry): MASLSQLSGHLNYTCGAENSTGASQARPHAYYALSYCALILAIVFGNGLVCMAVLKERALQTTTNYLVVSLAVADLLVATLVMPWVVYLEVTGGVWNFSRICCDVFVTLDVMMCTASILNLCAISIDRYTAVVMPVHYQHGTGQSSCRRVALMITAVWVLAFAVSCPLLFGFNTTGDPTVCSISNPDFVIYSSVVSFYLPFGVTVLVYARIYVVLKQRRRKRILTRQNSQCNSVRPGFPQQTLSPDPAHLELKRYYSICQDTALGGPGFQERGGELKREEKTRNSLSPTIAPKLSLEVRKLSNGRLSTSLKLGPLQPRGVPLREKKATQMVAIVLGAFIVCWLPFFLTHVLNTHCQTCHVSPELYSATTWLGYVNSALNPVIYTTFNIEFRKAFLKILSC
Briefly: CNS receptor binding, dopamine D3. Particulars: CHO cell lines, [3H]-spiperone(1), read-out: IC50 values for albiflorin. The method, then:
as §3

Another experiment has as its target D5 (Homo sapiens, UniProt P21918). The experiment can be described thus: CNS receptor binding, dopamine D5. As to conditions: HEK293 cell line, [3H]-SCH23390(1). The method, then: as §3
In the next experiment the target is 5-HT3 (Homo sapiens, UniProt P46098). The experiment can be described thus: CNS receptor binding, 5-HT3. As to conditions: HEK293 cell line. On the procedure: as §3
5-HT3, sequence (P46098 24-478): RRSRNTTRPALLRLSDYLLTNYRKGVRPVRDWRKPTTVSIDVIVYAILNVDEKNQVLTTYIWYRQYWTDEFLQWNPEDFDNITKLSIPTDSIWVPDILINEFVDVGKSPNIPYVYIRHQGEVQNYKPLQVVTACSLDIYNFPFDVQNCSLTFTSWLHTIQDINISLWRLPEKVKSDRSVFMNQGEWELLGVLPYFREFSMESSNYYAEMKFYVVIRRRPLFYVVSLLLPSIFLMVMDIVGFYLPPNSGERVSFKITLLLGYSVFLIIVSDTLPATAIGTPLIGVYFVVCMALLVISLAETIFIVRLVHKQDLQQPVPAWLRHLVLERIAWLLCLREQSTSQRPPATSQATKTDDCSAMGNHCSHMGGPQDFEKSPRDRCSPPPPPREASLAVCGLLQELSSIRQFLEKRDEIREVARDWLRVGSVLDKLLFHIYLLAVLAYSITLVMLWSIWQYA
The target in the next experiment is 5-HT5A (Homo sapiens, UniProt P47898). Briefly: CNS receptor binding, 5-HT5A. As to conditions: HEK293 cell line, [3H]-LSD(1). On the procedure:
as §3

The target in a further experiment is M2 (Homo sapiens, UniProt P08172). The experiment can be described thus: CNS receptor binding, muscarinic M2. As to conditions: HEK293 cell line, [3H]-NMS(1). On the procedure:
as §3

The target of another experiment is κ (Homo sapiens, UniProt P41145). The experiment can be described thus: CNS receptor binding, opioid κ. As to conditions: CHO cell line, [3H]-dipnorphine(1). On the procedure: as §3
κ, sequence (P41145 whole entry): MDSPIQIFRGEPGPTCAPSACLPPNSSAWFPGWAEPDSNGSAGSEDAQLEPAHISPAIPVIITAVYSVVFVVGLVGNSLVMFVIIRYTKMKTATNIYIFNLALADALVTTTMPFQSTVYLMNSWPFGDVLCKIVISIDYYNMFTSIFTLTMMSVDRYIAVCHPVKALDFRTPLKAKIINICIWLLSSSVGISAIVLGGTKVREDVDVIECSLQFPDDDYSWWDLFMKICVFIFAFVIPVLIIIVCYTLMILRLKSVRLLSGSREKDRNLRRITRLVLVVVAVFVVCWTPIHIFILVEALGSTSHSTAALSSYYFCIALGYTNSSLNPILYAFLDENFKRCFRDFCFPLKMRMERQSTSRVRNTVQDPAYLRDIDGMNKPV
In another experiment the target is A1 (Homo sapiens, UniProt P30542). Briefly: CNS receptor binding, adenosine A1. Particulars: CHO cell line, [3H]-DPCPX(1). The method, then: as §3
A1, sequence (P30542 whole entry): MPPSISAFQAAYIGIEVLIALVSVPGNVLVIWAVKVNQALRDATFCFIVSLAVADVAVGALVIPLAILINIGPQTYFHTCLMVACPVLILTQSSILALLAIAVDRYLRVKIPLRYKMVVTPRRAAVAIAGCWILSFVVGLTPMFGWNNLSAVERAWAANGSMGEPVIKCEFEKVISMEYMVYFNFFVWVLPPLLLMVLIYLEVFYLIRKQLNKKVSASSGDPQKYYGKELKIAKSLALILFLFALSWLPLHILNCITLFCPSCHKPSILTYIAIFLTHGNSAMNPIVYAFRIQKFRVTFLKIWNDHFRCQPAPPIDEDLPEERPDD
In a further experiment the target is A2A (Homo sapiens, UniProt P29274). Briefly: CNS receptor binding, adenosine A2A. Particulars: HEK293 cell line, [3H]-CGS21680(10), read-out: IC50 values for albiflorin. The method, then: as §3
A2A, sequence (P29274 whole entry): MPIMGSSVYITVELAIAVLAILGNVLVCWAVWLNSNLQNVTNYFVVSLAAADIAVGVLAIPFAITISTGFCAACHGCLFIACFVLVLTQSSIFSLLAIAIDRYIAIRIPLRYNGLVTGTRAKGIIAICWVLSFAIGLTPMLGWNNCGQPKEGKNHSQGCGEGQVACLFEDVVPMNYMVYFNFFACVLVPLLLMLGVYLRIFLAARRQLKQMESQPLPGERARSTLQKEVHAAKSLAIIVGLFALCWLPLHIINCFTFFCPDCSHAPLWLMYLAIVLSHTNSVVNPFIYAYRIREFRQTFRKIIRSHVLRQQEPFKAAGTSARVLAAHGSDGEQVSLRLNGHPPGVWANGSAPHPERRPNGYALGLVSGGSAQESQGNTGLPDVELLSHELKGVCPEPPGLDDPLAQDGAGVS
A further experiment relates to hypothalamic 5-HT levels. The experiment can be described thus: In vivo microdialysis, extracellular 5-HT. Also on record: species or system rats. On the procedure:
The effect of albiflorin on extracellular monoamine levels in […] was determined using methods previously described. Microdialysis probes (CMA Microdialysis) with an active membrane surface of 2 mm were perfused with artificial cerebrospinal fluid (125 mM NaCl, 3 mM KCl, 0.75 mM MgSO4 and 1.2 mM CaCl2, pH 7.4) in situ for at least 18 h before experimentation. The microdialysis probe was then implanted via the guide cannula into the hypothalamus and perfused with artificial cerebral spinal fluid at a flow rate of 1 μL/min. A 3-h stabilisation period was allowed after probe implantation, and dialysate sampling was conducted according to previously described methods. […] All subsequent values were expressed as a percentage of the mean preinjection value (i.e., percentage of baseline). […] For a minimum of 3 h after albiflorin administration, dialysis samples were collected every 20 min and analysed to determine the levels of NE, 5-HT and DA. […] A 20-μL sample from the hypothalamus was analysed for 5-HT, NE and DA content using methods described previously. […] External standard curves were used to quantify the amounts of NE, 5-HT and DA in each sample, which was calculated using the area under the curve.
All data for inhibition curves were analysed by nonlinear regression using Prism software (GraphPad Software Inc., San Diego, CA) to determine IC50 values. […]

In a further experiment the test system is duration of immobility. Details: method as in PMID 26719283. As to conditions: mice; short- and long-term administration; cited from earlier work.
Where [1] appears, read: read-out: IC50 values for albiflorin.

In general, IC50 refers to the concentration that gives 50% inhibition.

D5, sequence (P21918 whole entry): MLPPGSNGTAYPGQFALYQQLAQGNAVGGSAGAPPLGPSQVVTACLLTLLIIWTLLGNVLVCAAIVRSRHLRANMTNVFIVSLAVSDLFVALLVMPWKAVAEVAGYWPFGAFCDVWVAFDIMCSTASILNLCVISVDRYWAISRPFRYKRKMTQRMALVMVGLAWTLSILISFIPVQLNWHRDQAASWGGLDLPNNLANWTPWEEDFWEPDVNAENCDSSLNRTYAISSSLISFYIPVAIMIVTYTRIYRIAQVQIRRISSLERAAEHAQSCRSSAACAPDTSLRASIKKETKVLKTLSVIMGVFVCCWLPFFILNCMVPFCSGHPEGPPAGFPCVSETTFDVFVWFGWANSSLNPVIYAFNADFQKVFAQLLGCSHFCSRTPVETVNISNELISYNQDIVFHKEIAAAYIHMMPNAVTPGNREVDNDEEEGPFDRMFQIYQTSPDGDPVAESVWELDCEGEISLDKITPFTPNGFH
M2, sequence (P08172 whole entry): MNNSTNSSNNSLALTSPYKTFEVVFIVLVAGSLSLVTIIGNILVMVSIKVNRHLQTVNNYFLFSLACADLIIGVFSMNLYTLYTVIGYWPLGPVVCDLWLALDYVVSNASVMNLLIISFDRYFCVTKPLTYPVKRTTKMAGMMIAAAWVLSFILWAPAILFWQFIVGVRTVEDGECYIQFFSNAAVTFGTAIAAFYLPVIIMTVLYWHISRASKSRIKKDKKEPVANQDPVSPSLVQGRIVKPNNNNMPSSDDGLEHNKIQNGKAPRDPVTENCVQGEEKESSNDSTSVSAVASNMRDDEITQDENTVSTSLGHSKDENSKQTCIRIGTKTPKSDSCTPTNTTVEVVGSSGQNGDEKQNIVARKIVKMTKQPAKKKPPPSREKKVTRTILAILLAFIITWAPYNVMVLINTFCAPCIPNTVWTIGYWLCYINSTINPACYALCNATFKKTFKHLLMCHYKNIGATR
5-HT5A, sequence (P47898 whole entry): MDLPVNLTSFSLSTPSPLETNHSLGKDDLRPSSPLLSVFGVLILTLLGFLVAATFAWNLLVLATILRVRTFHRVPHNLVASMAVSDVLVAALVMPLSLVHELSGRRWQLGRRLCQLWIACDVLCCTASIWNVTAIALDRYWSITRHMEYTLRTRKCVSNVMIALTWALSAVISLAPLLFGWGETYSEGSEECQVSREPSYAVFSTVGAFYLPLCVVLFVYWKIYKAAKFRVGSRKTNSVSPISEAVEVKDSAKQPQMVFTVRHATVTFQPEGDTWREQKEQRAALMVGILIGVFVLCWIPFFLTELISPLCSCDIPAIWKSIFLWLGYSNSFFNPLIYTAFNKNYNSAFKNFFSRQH
T1 sequence (Q01959 whole entry): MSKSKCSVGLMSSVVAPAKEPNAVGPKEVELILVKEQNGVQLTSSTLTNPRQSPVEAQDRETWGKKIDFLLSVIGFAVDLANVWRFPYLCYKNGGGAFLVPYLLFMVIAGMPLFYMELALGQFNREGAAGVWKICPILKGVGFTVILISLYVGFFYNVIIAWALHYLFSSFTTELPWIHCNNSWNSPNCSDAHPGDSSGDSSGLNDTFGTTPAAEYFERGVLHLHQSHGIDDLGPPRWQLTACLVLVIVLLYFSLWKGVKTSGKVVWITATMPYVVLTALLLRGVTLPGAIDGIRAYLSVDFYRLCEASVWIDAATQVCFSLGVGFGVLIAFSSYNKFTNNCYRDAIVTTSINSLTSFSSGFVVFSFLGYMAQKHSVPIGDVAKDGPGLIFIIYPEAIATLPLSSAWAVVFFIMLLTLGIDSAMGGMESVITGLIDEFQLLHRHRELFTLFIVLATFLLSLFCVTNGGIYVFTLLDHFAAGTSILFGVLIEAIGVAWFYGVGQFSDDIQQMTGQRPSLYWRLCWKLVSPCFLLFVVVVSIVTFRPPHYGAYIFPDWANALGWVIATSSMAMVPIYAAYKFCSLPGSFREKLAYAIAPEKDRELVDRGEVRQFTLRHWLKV

Take `C[C@]12C[C@@H](O)[C@@H]3C[C@@]1(O[C@@H]1O[C@H](CO)[C@@H](O)[C@H](O)[C@H]1O)[C@@]3(COC(=O)c1ccccc1)C(=O)O2` [albiflorin, Albiflorin]: the IC50 at hDAT was 2.24 ± 0.025 µM; on hSERT, 0.00236 ± 0.00074 µM; at hNET, 0.00036 ± 8e-05 µM; on D1 (setting [1]), 2.99 ± 0.166 µM; at D3, 3.66 ± 0.212 µM; on D5 (setting [1]), above 10 µM. Further, the concentration for half-maximal inhibition (IC50) on 5-HT3 ([3H]-BRL3694, read-out: IC50 values for albiflorin) is above 10 µM; at 5-HT5A (setting [1]), above 10 µM; on M2 (setting [1]) it was above 10 µM; at κ (setting [1]), above 10 µM; on A1 (setting [1]), above 10 µM; on A2A, above 10 µM. Moreover, the “% Inhibition of binding at 10 μM albiflorin” value on D1 was 54.20%; at D5, 32.50%; on 5-HT3 ([3H]-BRL3694), 17.38%; on 5-HT5A, 20.11%; at M2, 13.33%; at κ it was 32.33%. The “% Inhibition of binding at 10 μM albiflorin” value on A1 amounted to 21.23%. Further, the “effect on hypothalamic 5-HT levels” value in the experiment with hypothalamic 5-HT levels (acute oral administration, 3.5, 7.0, 14.0 mg/kg, freely moving rats, vs vehicle) is on record as “significant increase”. Further, the “time of peak 5-HT increase post administration” value in the experiment with hypothalamic 5-HT levels (oral, rats, microdialysis) stood at 1 h. In the experiment on duration of immobility, the “antidepressant-like effect, tail-suspension test” value is given as “decreases in the duration of immobility”.

(Values after PMC5028780, “Receptor and transporter binding and activity profiles of albiflorin extracted from Radix paeoniae Alba” (Scientific Reports, 2016).)
